# Source: patent US20140315972A1, “RS)-2-(2-oxo-4-phenylpyrrolidin-1-yl)acetamide compound having modulatory activity with a commensurate effect, pharmaceutical substance (variants) and its application, composition (variants) thereof” (priority 2011, published 2014)
# Marks after values point to notes of the source that are not given here.
# Columns and labels:
# [1] = system: mice; assay: Acute toxicity, single intraperitoneal injection in male mice; type: in vivo; conditions: male mice 18-24 g; single i.p.
# Protocol: (§1) Tables 2, 2.1 and 2.2 present the results of acute toxicity studies of the Compounds with active substance content in at least white outbred male mice (body weight 18-24 g) and white outbred rats 30-35 days of age, of both sexes with a single dose. Calculation of toxic doses was made using the Wilcoxon and Litchfield method. Observations were made over 24 hours and 14 days after a single dose.
# (§2) LD50 in rat pups after intragastric administration was not found. Intragastric administration to rat pups of doses of more than 1000 mg/kg is technically impossible due to the small volume of the stomach (Table 2.2).
# [2] = system: rats; assay: Acute toxicity, single intragastric administration in immature rats; type: in vivo; conditions: for Dead/total number: rats 30-35 days
# Protocol: as §1, §2
# [3] = system: cortisol; assay: Plasma cortisol level (Tsf-activity) in August and Wistar rats; type: in vivo; conditions: for Tsf-activity by cortisol at 3 hours vs control / plasma cortisol at 60 min / Tsf-activity by cortisol at 60 min vs control: i.p. 1.0-750 mg/kg, averaged
# [4] = system: rats; assay: Scopolamine-induced CRPA amnesia, preventive and therapeutic use, adult male rats; type: in vivo
# Source text: These findings are of great importance. In clinic, medications have to be prescribed more often already in the midst of disorders.
# [5] = system: mice; assay: Hot plate test (pain sensitivity); type: in vivo; conditions: for Latent period (hot plate): mice
# Source text: The analgesic effect is present at all studied doses and increases with increasing dose.
# [6] = system: rats; assay: Hypoxia with hypercapnia in 7-day-old rats; type: in vivo
# [7] = system: rats; assay: Alcohol dependence and abstinence, free choice of water and alcohol; type: in vivo
# Source text: The antitoxic, sobering and anticraving, activity, as well as the effect of Phenotropil in abstinence was studied on white outbred male rats (weighing 180-220 g) and male mice (weighing 18-24 g) in chronic alcoholism. […] Alcoholized rats after four months of alcoholism and treatment with Phenotropilom voluntarily give up intake of alcohol (anticraving activity) with free choice of water and alcohol (Table 11).
# [8] = system: HSP70; assay: HSP70 expression in the myocardium (Western blot); type: in vivo, rats; conditions: for increase of NSP70 level in the myocardium vs Ns control: negative stress state; for increase of NSP70 content in the heart vs untreated control: no stress; for HSP 70 in myocardium: Wistar rats
# Source text: Determination of NSP70 (ng/mg of total protein) was studied in myocardial preparations by Western blot analysis; the results are presented in Table 14.1.
# [9] = system: rats; assay: 14-day immobilization in antiorthostatic position (Ds), thymus, spleen, adrenal mass ratios Kt; type: in vivo; conditions: Ds-conditions; for S/A: spleen/adrenals ratio (mg/100 g baseline body weight); for S/T: spleen/thymus ratio (mg/100 g baseline body weight); for T/A: thymus/adrenals ratio (mg/100 g baseline body weight)
# [10] = system: mice; assay: Average life duration (ALD) of mice; type: in vivo
# [11] = system: MDA; assay: MDA (lipid peroxidation) in saliva after topical course; type: in vivo; conditions: human saliva after topical course treatment, 100 mg per 100 ml water
# Source text: Studies of the effects of Phenotropil on condition of paradontium, enamel and dentin with topic application involved men and women (45-54 years) diagnosed with periodontitis, parodontosis and caries. Enrollment of groups by separate indicators in this age failed. In the vast majority of subjects, the diseases were combined. The gender ratio in groups was: 30.0% men and 70.0% women, the ratio of smokers to non-smokers 60:40, the number of female smokers was higher than male smokers by 35.0%. All patients received every three days the required amount of 0.1%, 0.2% or 0.3% solution of Phenotropil or placebo. The solutions were applied daily as dental trays (for 30 sec.) in the morning and evening at 30 ml per application for 30 days. Food and drinks intake, including water, were not recommended for 2 hours after the procedure. All patients underwent a dental check-up and standard hygienic treatment with removing plaque and dental scale and lavaging the gingival pockets with 1% Phenotropil solution. For each subject, the studied parameters were recorded; the aggregate integral indicator of the general periodontal condition of enamel and dentin was calculated, in the negative scores. The examinations were conducted once a week throughout the period of monotherapy. […]
# [12] = normal conditions and high physical activity; cited from earlier work
# [13] = 100.0 mg/kg before training + scopolamine
# [14] = 100.0 mg/kg during training and scopolamine
# [15] = abstinent rats, 7-month alcoholism, 200 mg/kg, day 3
# [16] = abstinent rats, 7-month alcoholism, 200 mg/kg, day 4
# [17] = after-effect of 45-day course 100 mg/kg, 1st day
# [18] = after-effect of 45-day course 100 mg/kg, 2nd day
# [19] = after-effect of 45-day course 100 mg/kg, 3rd day
# [20] = rats, 4-month alcoholism, 100 mg/kg, 45th day of administration
smiles,measurement,setting,value
"NC(=O)CN1CC(c2ccccc2)CC1=O (racemic) [Compound 1, (RS)-2-(2-oxo-4-phenylpyrrolidine-1-yl)acetamide]",LD50,[1],1042 (982.9-1102.0) mg/kg
same,Dead/total number,[2]; single intragastric 800 mg/kg,0/10
same,Dead/total number,[2]; single intragastric 1000 mg/kg,0/10
same,% of dead rat pups,[2]; single intragastric 800 mg/kg,0%
same,% of dead rat pups,[2]; single intragastric 1000 mg/kg,0%
same,Tsf-activity by cortisol at 3 hours vs control,[3]; August rats,+6.8%
same,plasma cortisol at 60 min,[3]; August rats,45.6 ± 4.1 nmol/L
same,Tsf-activity by cortisol at 60 min vs control,"[3]; August rats, listed as (RS)-2-(2-oxo-4-phenylpyrrolidin-1-yl)acetamide",+14.1%
same,Tsf-activity by cortisol at 60 min vs control,"[3]; August rats, listed as Phenotropil",+14.1* %
same,modulation factor change compared to the control,"[3]; August rats, single dose",−11.5%
same,Tsf-activity by cortisol at 3 hours vs control,[3]; Wistar rats,−7.6%
same,plasma cortisol at 60 min,[3]; Wistar rats,50.9 ± 4.4 nmol/L
same,Tsf-activity by cortisol at 60 min vs control,"[3]; Wistar rats, listed as (RS)-2-(2-oxo-4-phenylpyrrolidin-1-yl)acetamide",+2.0%
same,"biologically active dose (reliable effect on plasma cortisol), starting from","[3]; rats, i.p., range tested 0.5-750.0 mg/kg",≥ 1.0 mg/kg
same,% of animals that did not enter into the dark chamber,[4]; [13],80% *
same,LP Pre-training,[4]; [13],17.0 ± 2.9
same,LP of the training reproduction,[4]; [13],94.1 ± 8.7
same,Number of animals that did not enter into the dark chamber,[4]; [13],16/20
same,Time spent in the dark chamber,[4]; [13],49.9 ± 6.9
same,% of animals that did not enter into the dark chamber,[4]; [14],70% *
same,LP Pre-training,[4]; [14],18.4 ± 3.3
same,LP of the training reproduction,[4]; [14],91.1 ± 10.1
same,Number of animals that did not enter into the dark chamber,[4]; [14],14/20
same,Time spent in the dark chamber,[4]; [14],63.4 ± 12.5
same,reduction of pain sensitivity,"[5]; 50 mg/kg, 30 minutes",14.3%
same,reduction of pain sensitivity,"[5]; 50 mg/kg, 60 minutes",8.3%
same,reduction of pain sensitivity,"[5]; 50 mg/kg, 120 minutes",10.8%
same,reduction of pain sensitivity,"[5]; 100.0 mg/kg, 30 minutes",12.4%
same,reduction of pain sensitivity,"[5]; 100.0 mg/kg, 60 minutes",12.5%
same,reduction of pain sensitivity,"[5]; 100.0 mg/kg, 120 minutes",31.5%
same,reduction of pain sensitivity,"[5]; 300.0 mg/kg, 30 minutes",71.4%
same,reduction of pain sensitivity,"[5]; 300.0 mg/kg, 60 minutes",61.5%
same,Latent period (hot plate),"[5]; 50.0 mg/kg i.p., 30 min",12.0 ± 1.1 min
same,Latent period (hot plate),"[5]; 50.0 mg/kg i.p., 60 min",11.7 ± 0.7 min
same,Latent period (hot plate),"[5]; 50.0 mg/kg i.p., 120 min",12.3 ± 0.8 min
same,Latent period (hot plate),"[5]; 100.0 mg/kg i.p., 30 min",11.8 ± 0.7^ min.
same,Latent period (hot plate),"[5]; 100.0 mg/kg i.p., 60 min",13.5 ± 1.4 min
same,Latent period (hot plate),"[5]; 100.0 mg/kg i.p., 120 min",14.6 ± 1.4 min
same,Latent period (hot plate),"[5]; 300.0 mg/kg i.p., 30 min",18.0 ± 1.0 min
same,Latent period (hot plate),"[5]; 300.0 mg/kg i.p., 60 min",18.2 ± 0.8 min
same,Latent period (hot plate),"[5]; 300.0 mg/kg i.p., 120 min",22.2 ± 1.0 min
same,Duration of life of animals,[6]; 50 mg/kg,83.3 ± 7.9 min
same,Duration of life of animals,[6]; 100 mg/kg,123.2 ± 2.9 min
same,Alcohol consumption,[7]; [15],4.8 ± 0.8 mL/day
same,Alcohol consumption vs control,[7]; [15],−58.6%
same,Alcohol consumption,[7]; [16],2.4 ± 0.7 mL/day
same,Alcohol consumption vs control,[7]; [16],−74.0%
same,Alcohol consumption,"[7]; abstinent rats, 7-month alcoholism, 200 mg/kg, day 14",0.0 ** ml/day
same,Alcohol consumption,[7]; [17],3.3 ± 1.1 mL/day
same,Water consumption,[7]; [17],26.7 ± 3.9 mL/day
same,Alcohol consumption,[7]; [18],0.0 ** ml/day
same,Water consumption,[7]; [18],20.2 ± 3.3 mL/day
same,Alcohol consumption,[7]; [19],0.0 ** ml/day
same,Water consumption,[7]; [19],21.2 ± 3.5 mL/day
same,Alcohol consumption,[7]; [20],10.5 ± 4.2 mL/day
same,Water consumption,[7]; [20],24.0 ± 5.9 mL/day
same,increase of NSP70 level in the myocardium vs Ns control,[8]; 25 mg/kg,38%
same,increase of NSP70 content in the heart vs untreated control,[8]; 25 mg/kg,65%
same,increase of NSP70 level in the myocardium vs Ns control,[8]; 50 mg/kg,41.4%
same,increase of NSP70 content in the heart vs untreated control,[8]; 50 mg/kg,82%
same,increase of NSP70 level in the myocardium vs Ns control,[8]; 100 mg/kg,62%
same,increase of NSP70 content in the heart vs untreated control,[8]; 100 mg/kg,73%
same,increase of NSP70 level in the myocardium vs Ns control,[8]; 300 mg/kg,89.7%
same,increase of NSP70 content in the heart vs untreated control,[8]; 300 mg/kg,273%
same,HSP 70 in myocardium,"[8]; 25 mg/kg i.p., normal conditions",0.18 ± 0.011 ng/mg total protein
same,HSP 70 in myocardium,"[8]; 50 mg/kg i.p., normal conditions",0.20 ± 0.014 ng/mg total protein
same,HSP 70 in myocardium,"[8]; 100 mg/kg i.p., normal conditions",0.19 ± 0.008 ng/mg total protein
same,HSP 70 in myocardium,"[8]; 300 mg/kg i.p., normal conditions",0.41 ± 0.016 ng/mg total protein
same,HSP 70 in myocardium,[8]; Ns + 25 mg/kg i.p.,0.40 ± 0.02 ng/mg total protein
same,HSP 70 in myocardium,[8]; Ns + 50 mg/kg i.p.,0.41 ± 0.03 ng/mg total protein
same,HSP 70 in myocardium,[8]; Ns + 100 mg/kg i.p.,0.47 ± 0.02 ng/mg total protein
same,HSP 70 in myocardium,[8]; Ns + 300 mg/kg i.p.,0.55 ± 0.03 ng/mg total protein
same,S/A,[9]; 25 mg/kg,7.6 ± 1.2
same,S/T,[9]; 25 mg/kg,2.2 ± 0.1
same,T/A,[9]; 25 mg/kg,5.5 ± 1.1
same,S/A,[9]; 50 mg/kg,8.2 ± 1.2
same,S/T,[9]; 50 mg/kg,1.6 ± 0.1
same,T/A,[9]; 50 mg/kg,6.6 ± 1.1
same,S/A,[9]; 100 mg/kg,8.8 ± 1.2
same,S/T,[9]; 100 mg/kg,1.2 ± 0.2
same,T/A,[9]; 100 mg/kg,5.5 ± 1.1
same,ALD increase vs placebo-treated control,[10]; 50 mg/kg,15.3%
same,ALD increase vs placebo-treated control,[10]; 100 mg/kg,29.3%
same,ALD increase vs placebo-treated control,[10]; 200 mg/kg,12.5%
same,ALD increase vs placebo-treated control,[10]; 300 mg/kg,19.6%
same,increase in life duration,[10]; doses below 50.0 mg/kg,8.0-10.0%
same,MDA content,[11],0.026 ± 0.0415 nmol/L
same,time of excretion from the body,[12],72 h
